Experimental data reported in publication PMC12715756 (ACS Chemical Neuroscience, 2025).
Like-named read-outs stand apart in the source and are kept apart here.

Assays:
5-HT2B = molecular target: T1, 5-HT2B (Homo sapiens, UniProt P41595); experiment: Gq dissociation BRET assay in HEK293T cells; format: cell-based; settings: for EC50: Gq dissociation BRET, read-out: EC50 5-HT2B; for Emax: HEK-293T, read-out: Emax ± SEM, %5-HT response 5-HT2B
T1 construct: expressed in transfected cells; host or cells: HEK293T (ATCC; RRID:CVCL_0063), transient transfection

male Swiss CD-1 mice = experiment: Horizontal locomotor activity (HLA); format: in vivo; settings: for effect on horizontal locomotor activity: 2.5, 10, 25 mg/kg i.p., 120 min, ceiling effect at 25 mg/kg
Procedure: Male Swiss CD-1 mice (Janvier, Le Genest, France), weighing 30–35 g and aged 6–8 weeks, were used for HLA, thigmotaxis, CPP, and core body temperature experiments. Animals were housed under temperature-controlled conditions (22 ± 1 °C) with a 12 h light/dark cycle and had free access to food and water (standard laboratory diet, Panlab SL, Barcelona, Spain). Doses for HLA, thigmotaxis, CPP, and core body temperature experiments were calculated based on the free base form of each compound. For HTR experiments, male C57BL/6J mice (6–8 weeks old) were obtained from Jackson Laboratories (Bar Harbor, ME, USA) and housed up to four per cage with a reversed light-cycle (lights on at 1900 h, off at 0700 h). Food and water were provided ad libitum, except during behavioral testing. Testing was conducted between 1000 and 1830 h. Doses for HTR experiments were calculated based on the respective salt forms of the compounds.
A habituation phase was performed to reduce the stress and novelty associated with handling and injection. During this phase, which lasted for two consecutive days, mice received an intraperitoneal (ip) saline injection and were immediately placed into a black Plexiglas Open Field (OF) arena (25 × 25 × 40 cm) under low-light conditions and white noise for 30 min. On the test day, their horizontal locomotor activity (HLA) was measured. […] HLA was video monitored for 2 h, and a specific tracking software (Smart 3.0 Panlab, Barcelona, Spain) was used to measure their total traveled distance (in cm). Center Versus Periphery: The thigmotactic effects of the test compounds, widely considered as anxiety-like effects, were assessed through an OF test. Each mouse was individually placed in the center of an open-field arena (25 cm length × 25 cm width × 40 cm height). The time spent, in seconds, in the center (8 × 8 cm) or the periphery of the arena was monitored for 2 h (Smart 3.0 Panlab, Barcelona, Spain).

NET = NET (Homo sapiens, UniProt P23975); experiment: Uptake inhibition assay, [3H]MPP+ uptake in HEK293 cells; format: cell-based; parameters: expressed in transfected cells; settings: HEK293 cells, 0.02 μM [3H]MPP+; mean ± SD; read-out: IC50 ± SD, [3H]MPP+ uptake NET
DAT [1] = molecular target: T2, DAT (Homo sapiens, UniProt Q01959); settings: uptake inhibition; DAT/SERT ratio = 1/DAT / 1/SERT
OCT2 = molecular target: T3, OCT2 (Homo sapiens, UniProt O15244); experiment: Uptake inhibition assay, [3H]MPP+ uptake in HEK293 cells
T3 sequence (O15244 1-555): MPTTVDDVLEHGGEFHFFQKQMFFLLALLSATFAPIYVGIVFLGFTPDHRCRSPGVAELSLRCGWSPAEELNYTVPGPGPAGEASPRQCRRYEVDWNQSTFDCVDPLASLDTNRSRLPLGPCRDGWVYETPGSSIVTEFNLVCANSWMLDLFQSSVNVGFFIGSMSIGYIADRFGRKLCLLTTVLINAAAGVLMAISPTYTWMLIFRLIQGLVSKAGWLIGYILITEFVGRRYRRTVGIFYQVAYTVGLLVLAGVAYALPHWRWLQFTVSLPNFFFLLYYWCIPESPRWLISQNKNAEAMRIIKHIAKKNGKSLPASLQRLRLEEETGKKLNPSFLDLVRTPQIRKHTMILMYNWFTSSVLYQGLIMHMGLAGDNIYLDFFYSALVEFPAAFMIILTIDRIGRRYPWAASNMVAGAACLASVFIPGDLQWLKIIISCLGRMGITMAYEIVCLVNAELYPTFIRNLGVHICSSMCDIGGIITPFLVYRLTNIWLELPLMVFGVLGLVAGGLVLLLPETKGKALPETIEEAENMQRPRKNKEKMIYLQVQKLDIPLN

5-HT2A = molecular target: T4, 5-HT2A (Homo sapiens, UniProt P28223); experiment: Gq dissociation BRET assay in HEK293T cells; format: cell-based; settings: for Emax ± SEM, %5-HT response 5-HT2A / EC50: Gq dissociation BRET; for Emax ± SEM, %5-HT response 5-HT2A: relative to 5-HT
T4 construct: expressed in transfected cells; host or cells: HEK293T (ATCC; RRID:CVCL_0063), transient transfection

[2] = molecular target: T5, human organic cation transporter 1 (OCT1) (Homo sapiens, UniProt O15245); experiment: Uptake inhibition assay, [3H]MPP+ uptake in HEK293 cells
T5 sequence (O15245 1-554): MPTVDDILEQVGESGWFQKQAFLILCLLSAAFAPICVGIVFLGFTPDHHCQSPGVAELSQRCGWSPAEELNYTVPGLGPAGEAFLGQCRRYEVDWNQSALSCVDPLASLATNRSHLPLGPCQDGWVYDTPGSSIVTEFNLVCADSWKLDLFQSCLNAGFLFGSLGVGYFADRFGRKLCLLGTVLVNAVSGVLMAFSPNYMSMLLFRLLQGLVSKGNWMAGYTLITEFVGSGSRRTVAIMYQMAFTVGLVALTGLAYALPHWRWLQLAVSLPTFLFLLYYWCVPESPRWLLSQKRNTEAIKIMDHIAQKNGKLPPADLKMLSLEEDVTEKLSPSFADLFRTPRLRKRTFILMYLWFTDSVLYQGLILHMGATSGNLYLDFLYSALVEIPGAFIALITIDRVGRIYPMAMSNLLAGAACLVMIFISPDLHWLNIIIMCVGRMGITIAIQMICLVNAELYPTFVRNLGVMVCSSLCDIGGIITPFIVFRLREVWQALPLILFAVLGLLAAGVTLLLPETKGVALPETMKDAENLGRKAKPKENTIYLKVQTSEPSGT

[3] = Metabolic stability, substrate depletion in pooled human liver microsomes; settings: for CLint scaled at 0.5 μM / half-life at 0.5 μM / microsomal CLint at 0.5 μM: human, pooled human liver microsomes; for clearance classification: pHLM
DAT [4] = molecular target: T2, DAT; settings: for DAT/SERT ratio (EC50): efflux assays
SERT = SERT (Homo sapiens, UniProt P31645); experiment: Uptake inhibition assay, [3H]5-HT uptake in HEK293 cells; format: cell-based; parameters: expressed in transfected cells
Chain of SERT (P31645 whole entry): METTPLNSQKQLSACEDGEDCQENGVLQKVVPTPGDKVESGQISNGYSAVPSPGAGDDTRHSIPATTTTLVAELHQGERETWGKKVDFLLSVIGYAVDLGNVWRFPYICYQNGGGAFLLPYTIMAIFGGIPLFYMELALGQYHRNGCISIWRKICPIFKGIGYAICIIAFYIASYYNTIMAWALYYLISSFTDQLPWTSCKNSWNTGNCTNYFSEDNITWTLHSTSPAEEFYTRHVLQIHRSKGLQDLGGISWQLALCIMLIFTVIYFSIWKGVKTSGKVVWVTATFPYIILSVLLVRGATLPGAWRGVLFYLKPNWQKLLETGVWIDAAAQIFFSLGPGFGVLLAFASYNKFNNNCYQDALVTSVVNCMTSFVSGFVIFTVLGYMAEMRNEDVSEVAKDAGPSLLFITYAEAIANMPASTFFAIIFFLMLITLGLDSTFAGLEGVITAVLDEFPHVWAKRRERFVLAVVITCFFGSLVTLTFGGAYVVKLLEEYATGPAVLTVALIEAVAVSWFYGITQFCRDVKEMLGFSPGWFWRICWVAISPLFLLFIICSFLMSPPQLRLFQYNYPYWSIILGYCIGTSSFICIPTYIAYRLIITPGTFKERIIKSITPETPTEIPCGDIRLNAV

T4 sequence (P28223 whole entry): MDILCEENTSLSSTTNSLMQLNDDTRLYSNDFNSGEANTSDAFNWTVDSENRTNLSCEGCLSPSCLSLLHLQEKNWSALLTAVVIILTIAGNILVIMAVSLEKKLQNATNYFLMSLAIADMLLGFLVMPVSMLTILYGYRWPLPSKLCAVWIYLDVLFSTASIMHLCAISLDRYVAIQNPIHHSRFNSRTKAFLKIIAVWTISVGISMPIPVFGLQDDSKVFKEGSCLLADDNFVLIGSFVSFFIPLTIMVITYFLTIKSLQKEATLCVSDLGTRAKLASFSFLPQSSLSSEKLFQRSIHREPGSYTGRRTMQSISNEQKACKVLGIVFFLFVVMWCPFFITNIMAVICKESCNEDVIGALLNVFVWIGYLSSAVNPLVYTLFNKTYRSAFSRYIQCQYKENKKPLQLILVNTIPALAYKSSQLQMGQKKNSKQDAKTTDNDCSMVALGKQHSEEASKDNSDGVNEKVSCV
T1 sequence (P41595 whole entry): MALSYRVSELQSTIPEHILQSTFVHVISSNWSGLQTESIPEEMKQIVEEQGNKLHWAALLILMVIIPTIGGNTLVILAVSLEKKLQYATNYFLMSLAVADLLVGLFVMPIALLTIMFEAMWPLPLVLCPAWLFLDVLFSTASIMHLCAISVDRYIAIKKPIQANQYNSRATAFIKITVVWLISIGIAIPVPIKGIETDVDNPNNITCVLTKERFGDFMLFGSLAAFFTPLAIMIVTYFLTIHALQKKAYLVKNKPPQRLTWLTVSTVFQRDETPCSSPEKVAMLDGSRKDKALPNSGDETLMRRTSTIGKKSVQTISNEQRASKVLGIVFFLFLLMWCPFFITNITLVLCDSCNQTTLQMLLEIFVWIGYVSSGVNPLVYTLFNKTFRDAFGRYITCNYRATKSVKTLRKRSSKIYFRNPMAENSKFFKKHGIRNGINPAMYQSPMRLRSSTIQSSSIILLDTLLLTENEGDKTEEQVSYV
T2 sequence (Q01959 whole entry): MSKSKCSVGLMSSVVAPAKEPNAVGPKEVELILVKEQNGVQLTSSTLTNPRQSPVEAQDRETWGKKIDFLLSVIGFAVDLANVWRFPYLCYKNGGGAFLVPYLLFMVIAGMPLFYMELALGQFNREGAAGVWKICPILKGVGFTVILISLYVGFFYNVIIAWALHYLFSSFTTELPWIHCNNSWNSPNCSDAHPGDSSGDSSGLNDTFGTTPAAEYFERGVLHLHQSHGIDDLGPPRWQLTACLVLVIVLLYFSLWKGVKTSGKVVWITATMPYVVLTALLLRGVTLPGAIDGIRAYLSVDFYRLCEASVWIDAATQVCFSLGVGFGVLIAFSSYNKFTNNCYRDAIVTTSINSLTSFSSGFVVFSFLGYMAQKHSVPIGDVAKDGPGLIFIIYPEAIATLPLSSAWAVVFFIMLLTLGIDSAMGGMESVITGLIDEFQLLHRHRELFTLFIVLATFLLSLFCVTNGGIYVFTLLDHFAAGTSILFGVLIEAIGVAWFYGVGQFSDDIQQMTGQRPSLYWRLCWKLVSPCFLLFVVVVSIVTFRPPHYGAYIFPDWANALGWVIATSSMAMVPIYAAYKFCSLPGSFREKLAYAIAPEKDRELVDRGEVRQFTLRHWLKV
Chain of NET (P23975 whole entry): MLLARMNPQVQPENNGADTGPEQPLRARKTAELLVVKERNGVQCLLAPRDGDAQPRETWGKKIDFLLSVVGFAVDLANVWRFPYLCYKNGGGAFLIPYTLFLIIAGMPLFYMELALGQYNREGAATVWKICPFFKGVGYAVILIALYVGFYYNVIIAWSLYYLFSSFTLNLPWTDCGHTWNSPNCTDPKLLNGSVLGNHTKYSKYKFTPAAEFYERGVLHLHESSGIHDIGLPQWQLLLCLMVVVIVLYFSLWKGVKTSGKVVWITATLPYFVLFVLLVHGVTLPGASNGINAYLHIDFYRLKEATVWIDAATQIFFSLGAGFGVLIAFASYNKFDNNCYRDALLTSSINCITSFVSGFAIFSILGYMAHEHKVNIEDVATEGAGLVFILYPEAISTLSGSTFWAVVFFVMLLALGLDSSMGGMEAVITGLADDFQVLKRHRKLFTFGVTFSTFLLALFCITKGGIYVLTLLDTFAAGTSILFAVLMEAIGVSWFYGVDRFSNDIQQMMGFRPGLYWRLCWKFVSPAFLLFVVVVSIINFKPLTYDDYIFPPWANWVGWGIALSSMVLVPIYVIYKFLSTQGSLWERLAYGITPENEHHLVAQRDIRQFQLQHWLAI

**Q.** With `CC(N)Cc1ccc2c(c1)SCO2` (centres unmarked) [SDA, 1-(1,3-benzoxathiol-5-yl)propan-2-amine] as the compound, how does the EC50 (5-HT2B) read?
**A.** 41.5 nM

**Q.** And the Emax (5-HT2B)?
**A.** 88.2 ± 3.7%

**Q.** What about the “efficacy at inducing locomotion, in comparison to SDMA and MDMA” value (male Swiss CD-1 mice; 10 mg/kg i.p.) of the same compound?
**A.** significantly higher efficacy

**Q.** What about the “effect on horizontal locomotor activity” value (male Swiss CD-1 mice) of the same compound?
**A.** induced hyperlocomotion

**Q.** And the IC50 (NET)?
**A.** 850 ± 240 nM

**Q.** What about the “DAT/SERT ratio (IC50)” value (DAT [1]) of the same compound?
**A.** 2.42

**Q.** And the IC50 (OCT2)?
**A.** 5700 ± 600 nM

**Q.** What about the “Emax ± SEM, %5-HT response 5-HT2A” value (5-HT2A) of the same compound?
**A.** 92.4 ± 2.0%

**Q.** And the EC50 (5-HT2A; read-out: EC50 5-HT2A)?
**A.** 340 nM

**Q.** And the EC50 (5-HT2A; read-out: pEC50 ± SEM 5-HT2A (converted))?
**A.** 302 nM

**Q.** What about the IC50 [2] of the same compound?
**A.** 3650 ± 270 nM

**Q.** What about the CLint scaled at 0.5 μM [3] of the same compound?
**A.** 9.7 mL/min/kg

**Q.** And the half-life at 0.5 μM [3]?
**A.** 1.02 h

**Q.** And the microsomal CLint at 0.5 μM [3]?
**A.** 11.4 µL/min/mg

**Q.** And the clearance classification [3]?
**A.** low clearance compounds

**Q.** And the “type of releaser at DAT” value (DAT [4])?
**A.** partial releasers

**Q.** What about the “DAT/SERT ratio (EC50)” value (DAT [4]) of the same compound?
**A.** 0.66

**Q.** What about the IC50 (SERT) of the same compound?
**A.** 3090 ± 680 nM

**Q.** With `CNC(C)Cc1ccc2c(c1)SCO2` (centres unmarked) [SDMA, 1-(1,3-benzoxathiol-5-yl)-N-methylpropan-2-amine] as the compound, how does the EC50 (5-HT2B) read?
**A.** 357 nM

**Q.** And the Emax (5-HT2B)?
**A.** 70 ± 3.4%

**Q.** And the “effect on horizontal locomotor activity” value (male Swiss CD-1 mice)?
**A.** induced hyperlocomotion

**Q.** And the IC50 (NET)?
**A.** 770 ± 390 nM

**Q.** What about the “DAT/SERT ratio (IC50)” value (DAT [1]) of the same compound?
**A.** 2.15

**Q.** What about the IC50 (OCT2) of the same compound?
**A.** 4130 ± 600 nM

**Q.** What about the “Emax ± SEM, %5-HT response 5-HT2A” value (5-HT2A) of the same compound?
**A.** 68.2 ± 1.8%

**Q.** What about the EC50 (5-HT2A; read-out: EC50 5-HT2A) of the same compound?
**A.** 1400 nM

**Q.** What about the Emax (5-HT2A; HEK-293T, read-out: Emax ± SEM, %5-HT response 5-HT2A, Gq dissociation BRET, relative to 5-HT) of the same compound?
**A.** < 70%

**Q.** And the IC50 [2]?
**A.** 4390 ± 2840 nM

**Q.** What about the CLint scaled at 0.5 μM [3] of the same compound?
**A.** 8.4 mL/min/kg

**Q.** What about the half-life at 0.5 μM [3] of the same compound?
**A.** 1.18 h

**Q.** What about the microsomal CLint at 0.5 μM [3] of the same compound?
**A.** 9.8 µL/min/mg

**Q.** And the clearance classification [3]?
**A.** low clearance compounds

**Q.** What about the “type of releaser at DAT” value (DAT [4]) of the same compound?
**A.** partial releasers

**Q.** And the “DAT/SERT ratio (EC50)” value (DAT [4])?
**A.** 0.37

**Q.** What about the IC50 (SERT) of the same compound?
**A.** 4000 ± 870 nM
